Measurements as given in paper PMC11062899, “De novo development of small cyclic peptides that are orally bioavailable” (Nature Chemical Biology, 2023).
Values joined by “and” are separate entries in the source; they are usually repeats but may differ in a detail not shown here. Equal values may be shown once.

What was measured:
porcine pepsin = target: T1, porcine pepsin (Sus scrofa, UniProt P00791); assay: Peptide stability in simulated gastric fluid (SGF); type: in vitro ADME
T1 construct: 0.32 g of porcine pepsin (Sigma-Aldrich, P7125) was dissolved under gentle agitation; purchased Sigma-Aldrich P7125
Description: (§1) Simulated gastric and intestinal fluids were prepared according to the States Pharmacopeia specifications (Test Solutions, United States Pharmacopeia 35, NF 30, 2012). SGF: 0.2 g of sodium chloride was dissolved in 50 ml of water, and the pH was adjusted to 1.2 by addition of 0.7 ml of 10 M hydrochloric acid. Then, 0.32 g of porcine pepsin (Sigma-Aldrich, P7125) was dissolved under gentle agitation, and the volume was filled up to 100 ml with Milli-Q water. SIF: 0.68 g of monobasic potassium phosphate was dissolved in 25 ml of Milli-Q water, and the pH was adjusted to 6.8 by adding 7.7 ml of a 0.2 M sodium hydroxide solution. Next, 1 g of porcine pancreatin (Sigma-Aldrich, P3292) was added under gentle agitation, and the volume was adjusted to 100 ml with Milli-Q water to afford a fine suspension. To test the stability in simulated gastrointestinal fluids, 396 μl of SGF or SIF was pre-heated at 37 °C for 10 min, and 4 μl of a 1 mM peptide solution in DMSO was added. […] Supernatant was analyzed by LC–MS to measure the peptide concentrations at the different timepoints. Residual peptide was calculated by normalizing the concentrations measured at T1 to T0.

[1] = Metabolic stability in rat liver microsomes (RLMs); settings: rat, microsomes
rat α-thrombin = target: T2, rat α-thrombin (Rattus norvegicus, UniProt P18292); assay: Protease inhibition, Ki for rat α-thrombin (fluorogenic substrate Z-Gly-Gly-Arg-AMC); type: biochemical; settings: replicates R1-R3
T2 construct: rat α-thrombin (Molecular Innovations) were used at final concentrations of 2 nM and 3 nM; purchased Molecular Innovations
Procedure, shortened: (§2)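 Ki values come from Cheng–Prusoff correction of IC50, itself fitted by four-parameter logistic regression of activity versus a no-peptide control. Assays used 2 nM human or 3 nM rat thrombin, 50 μM Z-Gly-Gly-Arg-AMC, 30 min kinetic fluorescence at 25 °C.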

[2] = Peptide stability in simulated intestinal fluid (SIF); type: in vitro ADME, porcine; settings: simulated gi fluid; 8 h, 37 °C, pH 6.8; read-out: Proteolytic stability: SIF (8 h) % remaining
Description: as §1

porcine pancreatin = assay: as above; type: in vitro ADME; settings: after 8 h vs 0 h (TIC)
Description: as §1

human α-thrombin = human α-thrombin (Homo sapiens, UniProt P00734); assay: Protease inhibition, Ki for human α-thrombin (fluorogenic substrate Z-Gly-Gly-Arg-AMC); type: biochemical; settings: replicates R1-R3
Procedure, shortened: as §2

[3] = Passive artificial membrane permeability (PAMPA)
[4] = peptide 1.33E+02 uM, slope of proteolytic substrate cleavage over time

T1 sequence (P00791 60-385): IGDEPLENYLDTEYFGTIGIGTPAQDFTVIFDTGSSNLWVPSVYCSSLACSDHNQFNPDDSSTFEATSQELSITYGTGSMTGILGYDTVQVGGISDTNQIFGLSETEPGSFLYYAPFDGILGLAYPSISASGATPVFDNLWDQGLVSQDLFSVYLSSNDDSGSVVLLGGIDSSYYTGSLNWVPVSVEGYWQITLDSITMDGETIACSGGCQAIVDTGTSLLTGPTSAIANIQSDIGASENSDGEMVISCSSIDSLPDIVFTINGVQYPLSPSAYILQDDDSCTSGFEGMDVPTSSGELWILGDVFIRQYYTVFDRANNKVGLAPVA

## C[C@@H]1NC(=O)[C@@H](NC(=O)c2ccc(Cl)s2)CSCc2cccc(n2)CSCCNC(=O)c2ccc(cc2)CNC1=O [compound 26]
Porcine pepsin; after 8 h vs 0 h (TIC), average of R1-R3
  SGF stability, Residual peptide Average: 97.08
Porcine pepsin; after 8 h vs 0 h (TIC), single replicates R1-R3
  SGF stability, Residual peptide: 97.29 and 98.54 and 95.42
Porcine pepsin; simulated gi fluid, 8 h, 37 °C, pH 1.2, read-out: Proteolytic stability: SGF (8 h) % remaining
  remaining at 8 h: 97 ± 2%
[1]; CL (ul/min/mg protein) R1, RLM CL, replicate R1
  microsomal CLint: 73.3 µL/min/mg
[1]; CL (ul/min/mg protein) R2, RLM CL, replicate R2
  microsomal CLint: 121 µL/min/mg
[1]; CL (ul/min/mg protein) R3, RLM CL, replicate R3
  microsomal CLint: 129 µL/min/mg
[1]; Half Life (min) R1, RLM metabolic stability, replicate R1, 0-60 min
  half-life: 18.9 min
[1]; Half Life (min) R2, RLM metabolic stability, replicate R2, 0-60 min
  half-life: 11.4 min
[1]; Half Life (min) R3, RLM metabolic stability, replicate R3, 0-60 min
  half-life: 10.8 min
[1]; Metabolic stability: Half life T1/2 (min), RLMs, mean and SD, three measurements
  half-life: 13.7 ± 3.7 min
[1]; Metabolic stability: RLM CL (ul/min/mg), RLMs, mean and SD, three measurements
  microsomal CLint: 108 ± 25 µL/min/mg
Rat α-thrombin; [4]
  Rat alpha thrombin inhibition, slope normalized to DMSO: 14.8 and 14.9 and 15.8
Rat α-thrombin; peptide 1.67E+01 uM
  Rat alpha thrombin inhibition, slope normalized to DMSO: 13.6 and 25.5 and 34.3
Rat α-thrombin; peptide 2.08E+00 uM
  Rat alpha thrombin inhibition, slope normalized to DMSO: 26.5 and 27.8 and 27.7
Rat α-thrombin; peptide 3.33E+01 uM
  Rat alpha thrombin inhibition, slope normalized to DMSO: 22.7 and 27.1 and 25.7
Rat α-thrombin; peptide 4.17E+00 uM
  Rat alpha thrombin inhibition, slope normalized to DMSO: 20.6 (2×) and 20.4
Rat α-thrombin; peptide 6.67E+01 uM
  Rat alpha thrombin inhibition, slope normalized to DMSO: 19.9 and 22.5 and 21.1
Rat α-thrombin; peptide 8.33E+00 uM
  Rat alpha thrombin inhibition, slope normalized to DMSO: 13.5 and 20.1 and 24.1
[2]
  remaining at 8 h: 88 ± 5%
Porcine pancreatin; average of R1-R3
  SIF stability, Residual peptide Average: 88.29
Porcine pancreatin; single replicates R1-R3
  SIF stability, Residual peptide: 90.18 and 82.19 and 92.51
Human α-thrombin; peptide 1.02E-03 uM
  Human alpha thrombin inhibition, slope normalized to DMSO: 99.9 and 93.8 and 93.5
Human α-thrombin; peptide 1.04E+00 uM
  Human alpha thrombin inhibition, slope normalized to DMSO: 74.0 and 69.6 and 63.3
Human α-thrombin; peptide 1.27E-04 uM
  Human alpha thrombin inhibition, slope normalized to DMSO: 95.9 and 97.1 and 89.9
Human α-thrombin; peptide 1.30E-01 uM
  Human alpha thrombin inhibition, slope normalized to DMSO: 97.4 and 88.7 and 84.7
Human α-thrombin; [4]
  Human alpha thrombin inhibition, slope normalized to DMSO: 48.0 and 48.9 and 38.9
Human α-thrombin; peptide 1.63E-02 uM
  Human alpha thrombin inhibition, slope normalized to DMSO: 100.4 and 97.8 and 90.3
Human α-thrombin; peptide 1.67E+01 uM
  Human alpha thrombin inhibition, slope normalized to DMSO: 53.6 and 73.4 and 36.5
Human α-thrombin; peptide 2.03E-03 uM
  Human alpha thrombin inhibition, slope normalized to DMSO: 104.9 and 96.2 and 90.3
Human α-thrombin; peptide 2.08E+00 uM
  Human alpha thrombin inhibition, slope normalized to DMSO: 55.5 and 68.9 and 56.1
Human α-thrombin; peptide 2.54E-04 uM
  Human alpha thrombin inhibition, slope normalized to DMSO: 98.8 and 99.4 and 90.5
Human α-thrombin; peptide 2.60E-01 uM
  Human alpha thrombin inhibition, slope normalized to DMSO: 80.8 and 89.0 and 86.0
Human α-thrombin; peptide 3.18E-05 uM
  Human alpha thrombin inhibition, slope normalized to DMSO: 84.7 and 96.5 and 92.2
Human α-thrombin; peptide 3.26E-02 uM
  Human alpha thrombin inhibition, slope normalized to DMSO: 93.0 and 90.7 and 88.1
Human α-thrombin; peptide 3.33E+01 uM
  Human alpha thrombin inhibition, slope normalized to DMSO: 66.3 and 62.6 and 52.3
Human α-thrombin; peptide 4.07E-03 uM
  Human alpha thrombin inhibition, slope normalized to DMSO: 103.1 and 97.8 and 89.7
Human α-thrombin; peptide 4.17E+00 uM
  Human alpha thrombin inhibition, slope normalized to DMSO: 60.4 and 78.0 and 53.8
Human α-thrombin; peptide 5.09E-04 uM
  Human alpha thrombin inhibition, slope normalized to DMSO: 103.6 and 97.9 and 97.0
Human α-thrombin; peptide 5.21E-01 uM
  Human alpha thrombin inhibition, slope normalized to DMSO: 81.6 and 82.6 and 73.0
Human α-thrombin; peptide 6.36E-05 uM
  Human alpha thrombin inhibition, slope normalized to DMSO: 100.1 and 99.2 and 93.6
Human α-thrombin; peptide 6.51E-02 uM
  Human alpha thrombin inhibition, slope normalized to DMSO: 92.5 and 99.9 and 84.8
Human α-thrombin; peptide 6.67E+01 uM
  Human alpha thrombin inhibition, slope normalized to DMSO: 54.4 and 57.2 and 52.4
Human α-thrombin; peptide 8.14E-03 uM
  Human alpha thrombin inhibition, slope normalized to DMSO: 104.4 and 96.4 and 91.9
Human α-thrombin; peptide 8.33E+00 uM
  Human alpha thrombin inhibition, slope normalized to DMSO: 36.8 and 64.2 and 38.3
[3]; 50 μM, 12–18 h, acceptor concentration relative to equilibrium
  PAMPA permeability: % permeability: 4.3 ± 1.6%
[3]; PAMPA, pH 7.4
  Papp at 50 μM: 0.275 ×10⁻⁶ cm/s
[3]; PAMPA, average of R1-R3
  Permeability% Average: 4.3%
[3]; PAMPA, replicate R1, TIC of top well sample relative to sample at theoretical equilibrium
  Permeability% R1: 2.49%
[3]; PAMPA, replicate R3, TIC of top well sample relative to sample at theoretical equilibrium
  Permeability% R3: 5.45%
